{"source": "patent US12239643B2", "about": "“Therapeutic agent for inflammatory diseases, autoimmune diseases, fibrotic diseases, and cancer diseases” (MEIJI SEIKA PHARMA CO., LTD., priority 2018, dated 2025)"}
{"test_system": "PDE4", "assay": "Evaluation of PDE4 inhibitory activity, scintillation proximity assay", "format": "biochemical", "conditions": "scintillation proximity assay; read-out: PDE4 Inhibitory Activity (Evaluation 1; concentration for the inhibition rate of 50%)", "summary_of_the_method": "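IC50 was derived from inhibition curves, referenced to an enzyme-free blank and a DMSO-only control. Compound, PDE4 preparation and tritiated cAMP reacted 120 min at RT in Tris-HCl buffer (pH 7.4) with MgCl2, EGTA and BSA; YSi-SPA beads with ZnSO4 bound product before scintillation counting.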", "units": {"IC50": "nM"}}
{"smiles": "FC(F)Oc1ccc(-c2nccs2)c2oc(N3CC4CCC(C3)N4)nc12", "note": "[Example 263, 2-(3,8-Diazabicyclo[3.2.1]octan-3-yl)-4-(difluoromethoxy)-7-(thiazol-2-yl)benzo[d]oxazole]", "IC50": "< 100"}
{"smiles": "CC(C)(O)COc1ccc(-c2nccs2)c2oc(N3CC4CCC(C3)N4)nc12", "note": "[Example 264, 1-((2-(3,8-Diazabicyclo[3.2.1]octan-3-yl)-7-(thiazol-2-yl)benzo[d]oxazol-4-yl)oxy)-2-methylpropan-2-ol]", "IC50": "< 100"}
{"smiles": "CC(O)C(F)(F)OC(c1ccc(-c2nccs2)c2oc(N3CC4CC(C3)N4)nc12)C(F)(F)F", "note": "(centres unmarked) [Example 265, 1-(1-(2-(3,6-Diazabicyclo[3.1.1]heptan-3-yl)-7-(thiazol-2-yl)benzo[d]oxazol-4-yl)-2,2,2-trifluoroethoxy)-1,1-difluoropropan-2-ol]", "IC50": "< 100"}
{"smiles": "N#CC1CC(Oc2ccc(-c3nccs3)c3oc(N4CC5CC(C4)N5)nc23)C1", "note": "(centres unmarked) [Example 266, 3-((2-(3,6-Diazabicyclo[3.1.1]heptan-3-yl)-7-(thiazol-2-yl)benzo[d]oxazol-4-yl)oxy)cyclobutane-1-carbonitrile]", "IC50": "< 100"}
{"smiles": "CC(C)(O)C1CC(Oc2ccc(-c3nccs3)c3oc(N4CC5CC(C4)N5)nc23)C1", "note": "(centres unmarked) [Example 267, 2-(3-((2-(3,6-Diazabicyclo[3.1.1]heptan-3-yl)-7-(thiazol-2-yl)benzo[d]oxazol-4-yl)oxy)cyclobutyl)propan-2-ol]", "IC50": "< 100"}
{"smiles": "CC(C)(CO)Oc1ccc(-c2nccs2)c2oc(N3CC4CC(C3)N4)nc12", "note": "[Example 268, 2-((2-(3,6-Diazabicyclo[3.1.1]heptan-3-yl)-7-(thiazol-2-yl)benzo[d]oxazol-4-yl)oxy)-2-methylpropan-1-ol]", "IC50": "< 100"}
{"smiles": "OC1(c2cc(-c3nccs3)c3oc(N4CC5CC(C4)N5)nc3c2OC(F)(F)F)CC1", "note": "[Example 269, 1-(2-(3,6-Diazabicyclo[3.1.1]heptan-3-yl)-7-(thiazol-2-yl)-4-(trifluoromethoxy)benzo[d]oxazol-5-yl)cyclopropan-1-ol]", "IC50": "< 100"}
{"smiles": "CC(O)(c1ccc(-c2nccs2)c2oc(N3CC4CC(C3)N4)nc12)C(F)(F)F", "note": "(centres unmarked) [Example 270, 2-(2-(3,6-Diazabicyclo[3.1.1]heptan-3-yl)-7-(thiazol-2-yl)benzo[d]oxazol-4-yl)-1,1,1-trifluoropropan-2-ol]", "IC50": "< 100"}
{"smiles": "CC(O)(c1ccc(-c2nccs2)c2oc(N3CC4CC(C3)N4)nc12)C(F)(F)F", "note": "(centres unmarked) [Example 271, 2-(2-(3,6-Diazabicyclo[3.1.1]heptan-3-yl)-7-(thiazol-2-yl)benzo[d]oxazol-4-yl)-1,1,1-trifluoropropan-2-ol]", "IC50": "< 100"}
{"smiles": "CC(O)c1cc(-c2nccs2)c2oc(N3CC4CC(C3)N4)nc2c1OC(F)(F)F", "note": "(centres unmarked) [Example 272, 1-(2-(3,6-Diazabicyclo[3.1.1]heptan-3-yl)-7-(thiazol-2-yl)-4-(trifluoromethoxy)benzo[d]oxazol-5-yl)ethan-1-ol]", "IC50": "< 100"}
{"smiles": "CC(O)c1cc(-c2nccs2)c2oc(N3CC4CC(C3)N4)nc2c1OC(F)(F)F", "note": "(centres unmarked) [Example 273, 1-(2-(3,6-Diazabicyclo[3.1.1]heptan-3-yl)-7-(thiazol-2-yl)-4-(trifluoromethoxy)benzo[d]oxazol-5-yl)ethan-1-ol]", "IC50": "< 100"}
{"smiles": "OC1(c2cc(-c3nccs3)c3oc(N4CC5CCC(C4)N5)nc3c2OC(F)(F)F)CC1", "note": "[Example 274, 1-(2-(3,8-Diazabicyclo[3.2.1]octan-3-yl)-7-(thiazol-2-yl)-4-(trifluoromethoxy)benzo[d]oxazol-5-yl)cyclopropan-1-ol]", "IC50": "< 100"}
{"smiles": "OC(c1cc(-c2nccs2)c2oc(N3CC4CCC(C3)N4)nc2c1OC(F)(F)F)C(F)F", "note": "(centres unmarked) [Example 275, 1-(2-(3,8-Diazabicyclo[3.2.1]octan-3-yl)-7-(thiazol-2-yl)-4-(trifluoromethoxy)benzo[d]oxazol-5-yl)-2,2-difluoroethan-1-ol]", "IC50": "< 100"}
{"smiles": "OC(c1cc(-c2nccs2)c2oc(N3CC4CCC(C3)N4)nc2c1OC(F)(F)F)C(F)F", "note": "(centres unmarked) [Example 276, 1-(2-(3,8-Diazabicyclo[3.2.1]octan-3-yl)-7-(thiazol-2-yl)-4-(trifluoromethoxy)benzo[d]oxazol-5-yl)-2,2-difluoroethan-1-ol]", "IC50": "< 100"}
